ChEMBL document CHEMBL1949584, “Design and synthesis of novel inhibitors of human kynurenine aminotransferase-I” (Bioorg Med Chem Lett, 2012)
pIC50: −log10 of the molar value.

The molecules below were run against T1, Kynurenine--oxoglutarate transaminase 1 (Homo sapiens) (UniProt Q16773) (assay: Ratio of compound IC50 to indole-3-propionic acid IC50 for human recombinant KAT1).
T1 sequence (whole entry): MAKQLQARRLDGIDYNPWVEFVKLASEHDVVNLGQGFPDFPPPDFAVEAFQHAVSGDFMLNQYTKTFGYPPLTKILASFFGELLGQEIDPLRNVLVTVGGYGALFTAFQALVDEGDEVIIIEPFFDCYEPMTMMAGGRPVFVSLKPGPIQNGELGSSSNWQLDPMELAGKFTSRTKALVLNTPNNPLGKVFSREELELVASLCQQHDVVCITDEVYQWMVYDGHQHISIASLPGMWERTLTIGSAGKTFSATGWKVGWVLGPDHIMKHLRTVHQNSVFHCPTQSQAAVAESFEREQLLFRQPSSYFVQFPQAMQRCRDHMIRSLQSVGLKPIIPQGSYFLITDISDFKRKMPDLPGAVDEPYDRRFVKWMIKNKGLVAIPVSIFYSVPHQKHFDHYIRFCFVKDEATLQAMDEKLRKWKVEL
CCOC(=O)/C(CCCC(=O)O)=N\Nc1cccc(Cl)c1 showed a Ratio IC50 of 7.
CCOC(=O)/C(CCCC(=O)O)=N\Nc1ccc(Cl)cc1 showed a Ratio IC50 of 7.

These molecules were tested against T2, Kynurenine--oxoglutarate transaminase 1 (Homo sapiens, UniProt Q16773) (assay: Inhibition of human recombinant KAT1 after 20 mins by RP-HPLC analysis).
T2 sequence (Q16773 whole entry): T1 sequence (whole entry)
With O=C(O)CCc1c(C(=O)O)[nH]c2ccc(Br)cc12 the pIC50 was 3.57.
CCOC(=O)/C(CCCC(=O)O)=N\Nc1ccc(Br)cc1 showed a pIC50 of 4.68.
In the case of CCOC(=O)/C(CCCC(=O)O)=N\Nc1cccc(Cl)c1, the pIC50 was 4.70.
For O=C(O)CCc1c(C(=O)O)[nH]c2ccc(Cl)cc12, the pIC50 was 3.53.
Work on COc1ccc2[nH]c(C(=O)O)c(CCC(=O)O)c2c1 yielded a pIC50 of less than 2.22.
In the case of CCOC(=O)/C(CCCC(=O)O)=N\Nc1ccc(Cl)cc1, the pIC50 was 4.70.
Molecule O=C(O)CCc1c(C(=O)O)[nH]c2ccc([N+](=O)[O-])cc12 has a pIC50 of 3.18.
Molecule CCOC(=O)/C(CCCC(=O)O)=N\Nc1ccc(I)cc1 has a pIC50 of 4.47.
CCOC(=O)/C(CCCC(=O)O)=N\Nc1ccc(C)cc1 showed a pIC50 of 4.48.
Cc1ccc2[nH]c(C(=O)O)c(CCC(=O)O)c2c1 was tested, and the pIC50 was less than 3.00.
In the case of CCOC(=O)/C(CCCC(=O)O)=N\Nc1ccc([N+](=O)[O-])cc1, the pIC50 was 3.75.
CCOC(=O)/C(CCCC(=O)O)=N\Nc1ccc(OC)cc1 gave a pIC50 of 4.37.
